One block for each compound: values may come before it.
Columns and labels:
involucrin = experiment: Real-time RT PCR involucrin mRNA, normal human epidermal keratinocytes; format: cell-based; conditions: 10^−8 M
Procedure: (§1) RNA was extracted using an Absolutely RNA RT-PCR Miniprep Kit (Stratagene, La Jolla, Calif.). Real time PCR and reverse transcription products were purchased from Applied Biosystems, Foster City, Calif. Reverse transcription was performed using Taqman® Reverse Transcription Reagents. The following PCR products were used: cytokeratin 14: Hs00265033_m1, involucrin: Hs00846307_s1, CYP27A1: Hs00168003_ml, CYP27B1: Hs00168017_ml, 18SrRNA: Hs99999901_s1. The reaction was performed with Taqman® Universal PCR Master Mix; data were collected on an ABI Prism 7700 and analyzed on Sequence Detector 1.9.1. Specific gene amounts were related to 18SrRNA by comparative CT method.

CYP24 promoter = experiment: CYP24-Luc reporter in normal epidermal keratinocytes; format: cell-based, human; conditions: 24 h
Text: The CYP24-Luc construct was a generous gift from Dr Tai Cheng (Boston University Medical Campus, Core Lab Director). It was originally developed by Vaisanen et al. (27). The details of the pLuc construct have been described previously (28-29). Normal epidermal keratinocytes were transfected using Lipofectamine Plus (Invitrogen, Carlsbad, Calif.) in Epilife medium with firefly luciferase reporter gene plasmid and with phRL-TK (expresses Renilla luciferase and serves as normalization control; Promega, Madison, Wis.). After transfection, cells were incubated for 24 hours in EpiLife medium with HKGS. Cells were then transferred to fresh media containing the compounds to be tested or vehicle (ethanol) and incubated for 24 hours. The firefly luciferase and Renilla luciferase signals were recorded with a TD-20/20 luminometer (Turner Designs, Sunnyvale, Calif.); background luminescence was subtracted and the resulting promoter-specific firefly signal was divided by the Renilla signal (proportional to the number of transfected cells). The values obtained were divided by the mean of control (untreated) cells.

[1] = test system: normal epidermal keratinocytes; experiment: Flow cytometry DNA content, normal epidermal keratinocytes; format: cell-based, human; conditions: 10 nM
CYP27A1 = experiment: Real-time RT PCR CYP27A1 mRNA, normal epidermal keratinocytes; format: cell-based, human; conditions: 10^−8 M
Procedure: as §1

VDRE = experiment: VDRE-Luc reporter (with siRNA) in HaCaT keratinocytes; format: cell-based, human; conditions: 24 h
Procedure: HaCaT keratinocytes were transfected with VDRE-Luc (gift from Dr. That Chen (27) and with scrambled or VDR siRNA (Dharmacon, Inc., Lafayette, Mo., on-Target plus smart pool human VDR L-003448-00, on-Target plus siControl non-targeting pool D-001810-10-05) using Lipofectamine Plus (Invitrogen, Carlsbad, Calif.) in DMEM medium. PhRL-TK (expresses Renilla luciferase) served as a normalization control; Promega, Madison, Wis.). After transfection, cells were incubated for 24 hours in DMEM with 5% FBS. Cells were then transferred to fresh media containing the compounds to be tested or vehicle (ethanol) and incubated for 24 hours. Levels of VDR and beta-actin 24 h after transfection were assessed with Western blot (VDR(D-6) antibody, sc-13133, 1:400, Santa Cruz, Inc., Santa Cruz, Calif.) performed as described previously (30.).
Construct CYP24-Luc and VDRE-Luc constructs were a generous gift from Dr. Tai Cheng, Ph.D. (Boston University Medical Campus, Core Lab Director). It was originally developed by Vaisanen et al. (27). PLuc and NFκB-Luc construct was described previously (28-29). huVDR construct was a generous gift from Dr. D. Bikle. HaCaT keratinocytes were transfected with NFκB-Luc, CYP-24-Luc, VDRE-Luc and hVDR constructs using Lipofectamine Plus (Invitrogen, Carlsbad, Calif.) in DMEM medium with firefly luciferase reporter gene plasmid and with phRL-TK.

HaCaT keratinocytes = experiment: [3H]-thymidine DNA synthesis in HaCaT keratinocytes; format: cell-based, human
Outline: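 HaCaT cells in DMEM with 5% charcoal-treated FBS received vehicle (ethanol) or secosteroids for 48 hours, with [3H]-thymidine at 1 μCi/mL for the final 12 hours. Incorporated radioactivity from trypsin-harvested cells on glass fiber filters was counted by beta counter.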

Structure (SMILES): C=C1/C(=C\C=C2/CCC[C@]3(C)[C@@H]([C@H](C)CCCC(C)(C)O)CC[C@@H]23)C[C@@H](O)C[C@@H]1O [1α,25-dihydroxycholecalciferol, (5Z,7E)-9,10-secocholesta-5,7,10(19)-triene-1α,3β,25-triol, reference compound]
stimulation of involucrin mRNA (involucrin; 6 h): ~3.1 fold
stimulation of transcriptional activity of the CYP24 promoter (CYP24 promoter): ~21 fold
cells in G1/0 ([1]; 24 h): 52±2%
cells in G2/M ([1]; 24 h): 35±5%
cells in S phase ([1]; 24 h): 13±7%
inhibition of CYP27A1 expression (CYP27A1; 24 h): ~2.9 fold

increase in VDRE-driven luciferase activity (VDRE; 10 nM, scrambled siRNA): ~3 fold
Structure (SMILES): C=C1CC[C@H](O)C/C1=C/C=C1\CCC[C@@]2(C)[C@H]1CC[C@@H]2[C@@](C)(O)CCCC(C)C [20(OH)D3, (5Z,7E)-9,10-secocholesta-5,7,10(19)-triene-3β,20-diol]
stimulation of involucrin mRNA (involucrin; 6 h): 4.7 fold
stimulation of involucrin mRNA (involucrin; 24 h): 1.8 fold
stimulation of transcriptional activity of the CYP24 promoter (CYP24 promoter): ~2.5 fold
cells in G1/0 ([1]; 48 h): 52±5%
cells in G2/M ([1]; 48 h): 35±8%
cells in S phase ([1]; 48 h): 13±12%
DNA synthesis ([3H]-thymidine assay) (HaCaT keratinocytes; 48 h, 10^−8 and 10^−7 M): inhibited DNA synthesis
keratinocyte proliferation compared with 1α,25-dihydroxycholecalciferol (HaCaT keratinocytes; HaCaT, 48 h): inhibit keratinocyte proliferation more potently than the control compound
inhibition of CYP27A1 expression (CYP27A1; 24 h): ~3.5 fold
inhibition of CYP27A1 expression (CYP27A1; 48 h): ~2.6 fold

Structure (SMILES): C=C1CC[C@H](O)C/C1=C/C=C1\CCC[C@]2(C)[C@@H](C(C)(O)CC(O)CC(C)C)CC[C@@H]12 (stereo partly drawn) [20,23-dihydroxycholecalciferol, (5Z,7E)-9,10-secocholesta-5,7,10(19)-triene-3β,20,23-triol]
VDRE-Luc activity (VDRE; HaCaT, 10 nM and 100 nM): Activation of VDRE
decrease in DNA synthesis (HaCaT keratinocytes; 0.1 nM): 30%
decrease in DNA synthesis (HaCaT keratinocytes; 10 nM): approximately 50%
keratinocyte proliferation compared with 1α,25-dihydroxycholecalciferol (HaCaT keratinocytes; HaCaT, 48 h): inhibit keratinocyte proliferation more potently than the control compound

Structure (SMILES): C=C1CC[C@H](O)C/C1=C/C=C1\CCC[C@]2(C)[C@@H](C(C)=O)CC[C@@H]12 [pD3, (5Z,7E)-3β-hydroxy-9,10-secopregna-5,7,10(19)-trien-20-one]
proliferation (DNA synthesis) (HaCaT keratinocytes; HaCaT, 48 hr): inhibits proliferation

From patent US20120258938A1, “Enzymatic Production or Chemical Synthesis and Uses for 5,7-Dienes and UVB Conversion Products Thereof” (priority 2008, published 2012)
